Measured values published in patent publication US6034066A, “Cysteine protease inhibitors for use in treatment of IGE mediated allergic diseases” (Peptide Therapeutics Limited, priority 1995, dated 2000).

Biological target: T1, Der p I (Dermatophagoides pteronyssinus, UniProt P08176)
T1 construct: tissue SmithKline-Beecham (crude mite extract); host or cells: house dust mite extract, purified on immobilised anti-Der p I antibody 4C1
T1 sequence (P08176 99-320): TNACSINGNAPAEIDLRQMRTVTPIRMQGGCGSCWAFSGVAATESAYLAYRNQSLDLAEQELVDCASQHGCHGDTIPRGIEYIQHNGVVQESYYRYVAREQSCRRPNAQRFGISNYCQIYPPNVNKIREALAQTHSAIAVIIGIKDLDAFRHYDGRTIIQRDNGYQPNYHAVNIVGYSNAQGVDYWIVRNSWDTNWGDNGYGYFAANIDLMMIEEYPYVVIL
Assay: Cleavage of membrane CD23 on RPMI 8866 B cells by Der p I, FACS with FITC anti-CD23 (Bu38)
Type: cell-based
Settings: Der p I pre-incubated 30 min at 37° C. with inhibitor, then added to RPMI 8866 cells; FIG. 1(c)
Source text: We have affinity purified Der p I from dust mite extract and tested its ability to proteolytically cleave CD23 expressed on cultured RPMI 8866 B cells, using FITC labelled monoclonal anti-human CD23 (Bu38). […] The proteolytic activity of Der p I was inhibited by E64 (a cysteine protease inhibitor), but not by alpha-1-antitrypsin (a serine protease inhibitor), thereby confirming the cysteine protease nature of Der p I (FIG. 1c). […] A more detailed description of FIG. 1 is as follows:
Cells were analysed on a FACScan (Becton Dickinson, Oxford, UK) with a linear fluorescence setting of 660 volts. The fluorescence (FL1) profile versus forward scatter (FSC) was used to monitor the cells, the amplification scale was altered according to the level of fluorescence. For each sample 4000 events were collected and then analysed using the flowMATE programme (DAKO, High Wycombe, UK). Data presented are representative of 3 replicate experiments, each point in a to c represents the mean of duplicate determinations, FIG. 1(a). Dose and cysteine dependency of CD23 cleavage by Der p I (for method of purification see FIG. 1(d) below). Der p I was pre-incubated (15 min at 37° C.) with or without 5 mM cysteine and added to 2-3×10^5 RPMI 8866 cells in a total volume of […] RPMI 1640+10 mM HEPES. […]

| Compound | inhibition of membrane CD23 cleavage by Der p I |
| --- | --- |
| CC(C)C[C@H](NC(=O)[C@H]1O[C@@H]1C(=O)O)C(=O)NCCCCN=C(N)N (relative stereo) [Compound E64, L-trans-epoxysuccinyl-leucylamido (4-guanidino) butane, reference compound] | completely inhibits |
| alpha-1-antitrypsin: a naturally occurring human serine protease inhibitor | no such inhibitory effect |
